Measurements published in PubChem BioAssay AID1924 (Vanderbilt High Throughput Screening Facility, 2009).

Test system: Vesicular inhibitory amino acid transporter (Rattus norvegicus) + Acetylcholine receptor subunit alpha (Homo sapiens) + Estrogen receptor (Homo sapiens) + Glucocorticoid receptor (Homo sapiens) + Sodium channel protein type 1 subunit alpha (Rattus norvegicus) + Beta-2 adrenergic receptor (Homo sapiens) + Muscarinic acetylcholine receptor M2 (Homo sapiens) + Beta-1 adrenergic receptor (Homo sapiens) + 5-hydroxytryptamine receptor 1A (Homo sapiens) + Alpha-2A adrenergic receptor (Homo sapiens) + Muscarinic acetylcholine receptor M1 (Homo sapiens) + Interleukin-1 receptor type 1 (Mus musculus) + D(2) dopamine receptor (Homo sapiens) + Androgen receptor (Rattus norvegicus) + Gamma-aminobutyric acid receptor subunit gamma-2 (Rattus norvegicus) + Muscarinic acetylcholine receptor M3 (Homo sapiens) + D(1A) dopamine receptor (Homo sapiens) + D(4) dopamine receptor (Homo sapiens) + Glutamate receptor ionotropic, kainate 1 (Rattus norvegicus) + Sodium-dependent noradrenaline transporter (Homo sapiens) + Endothelin receptor type B (Homo sapiens) + Alpha-1D adrenergic receptor (Homo sapiens) + Endothelin-1 receptor (Homo sapiens) + Substance-P receptor (Homo sapiens) + Neuropeptide Y receptor type 1 (Homo sapiens) + Adenosine receptor A2a (Homo sapiens) + B2 bradykinin receptor (Homo sapiens) + Adenosine receptor A1 (Homo sapiens) + Sodium-dependent serotonin transporter (Homo sapiens) + Neuronal acetylcholine receptor subunit alpha-3 (Homo sapiens) + Histamine H1 receptor (Homo …
Test: broad ancillary panel percent inhibition – biochemical, MDS panel, selectivity assay for ROMK channel modulator project, profiling panel (AID 1924)
Conditions: MDS Pharma lead profiling binding panel, at 10 µM, stronger effect = higher value

O=[N+]([O-])c1ccc2nc(COCc3nc4ccc([N+](=O)[O-])cc4[nH]3)[nH]c2c1
inhibition: 75%
inhibition (measured here: Adenosine A1 human binding): 14%
inhibition (measured here: Adenosine A3 human binding): 21%
inhibition (measured here: Adrenergic a2A human binding): 14%
inhibition (measured here: Adrenergic b2 human binding): 9%
inhibition (measured here: Bradykinin B2 human binding): -16%
inhibition (measured here: Calcium channel L-type BTZ rat): 22%
inhibition (measured here: Calcium channel L-type DHP rat): 26%
inhibition (measured here: Calcium channel N-type rat): 0%
inhibition (measured here: Dopamine D1 human binding): -2%
inhibition (measured here: Dopamine D2S human binding): -6%
inhibition (measured here: Dopamine D3 human binding): 1%
inhibition (measured here: Estrogen ER alpha human binding): 1%
